Tests used:
[1] = system: human LDL receptor gene promoter coupled to firefly luciferase reporter gene in Hep-G2 cell line; test: In vitro determination of LDL receptor induction using the luciferase assay; type: cell-based; details: luminescence, DMSO control=100%
Method: 1) In Vitro Determination of LDL Receptor Induction Using the Luciferase Assay
LDL-receptor induction is determined using the luciferase assay as follows. A regulatory DNA fragment (4 kb) of the human LDL receptor gene containing the complete promoter region is coupled to the firefly luciferase reporter gene and stably transfixed into a Hep-G2 cell line. Cells from this line were seeded out on collagen-coated 96-well plates in MEM (minimum essential medium). After 24 hours in culture, the test substances, dissolved in DMSO, were added in final concentrations of 10 nM to 10 μM (final DMSO concentration=2%). The substances were incubated for 12-18 hours overnight (4 wells/conc. in each case), then D-luciferin was added as substrate for the luciferase, and the luminescence was measured. The measured luminescence as a percentage of the control (control=100%) incubated only with DMSO indicates the extent of the relative LDL receptor induction (Table 2).
Further details of the method are described in Current Protocols in Molecular Biology, F. M. Ausubel, R. Brent, R. E. Kingston, D. D. Moore, J. G. Seidman, J. A. Smith, and K. Struhl, eds., J. Wiley and Sons Inc., U.S.A.

[2] = system: hyperlipemic hamsters (plasma lipid level); test: In vivo reduction in LDL cholesterol / plasma lipid level in hyperlipemic hamsters; design: species or system Syrian hamster; details: vs placebo-treated control
Text: In Vivo Determination of Reduction in LDL Cholesterol in the Hamster; Cholesterol-lowering Effect of LDL Receptor Inducers in Hyperlipemic Hamsters
In this animal experiment, the effect of LDL receptor inducers after bolus adiminstration to hamsters on a lipid-rich diet was investigated.
The experimental animals used were male Syrian hamsters (Charles River) with an average body weight of 100 to 120 g at the start of adaption. The animals were divided into groups (n=6) on the basis of the body weight. Severe hyperlipidemia was induced by feeding with a diet supplemented with 15% butter and 3% cholesterol. The treatment started after preliminary feeding for 2 weeks. The test substances were administered orally by gavage once a day over a period of 10 days. The plasma lipid level was analyzed after 10 days.

[3] = 20 mg/kg p.o. once a day for ten days
[4] = 40 mg/kg p.o. once a day for ten days

| SMILES | LDL receptor induction (% of control) ([1]; 4 μM) | LDL receptor induction (% of control) ([1]; 1.5 μM) | LDL receptor induction (% of control) ([1]; 0.15 μM) | other results |
| --- | --- | --- | --- | --- |
| CN1CCN(c2cc(NCc3ccccc3)c(S(=O)(=O)N3CCCC3)cc2S(=O)(=O)N2CCCC2)CC1 [Example 5] | 240% (4 μM) | – | – | – |
| CN1CCN(c2cc(N3CC=C(c4ccccc4)CC3)c(S(=O)(=O)N(C)c3ccccc3)cc2S(=O)(=O)N(C)c2ccccc2)CC1 [Example 108] | 249% | 191% | – | – |
| COCCCNS(=O)(=O)c1cc(S(=O)(=O)NCCCOC)c(N2CCN(c3ccccc3)CC2)cc1NCCN1CCCC1 [Example 102] | 298% | 239% | – | – |
| CN1CCN(c2cc(NCc3ccccc3)c(S(=O)(=O)N(C)c3ccccc3)cc2S(=O)(=O)N(C)c2ccccc2)CC1 [Example 9] | – | 402% | 244% | – |
| CCN(CCN(C)C)c1cc(NC2CCN(Cc3ccccc3)CC2)c(S(=O)(=O)N2CCCCC2)cc1S(=O)(=O)N1CCCCC1 [Example 65] | 314% | 292% | 177% | – |
| O=S(=O)(c1cc(S(=O)(=O)N2CCCCC2)c(NCc2cccc(Cl)c2)cc1NCCN1CCCC1)N1CCCCC1 [Example 84] | 223% | 199% | – | – |
| CCN(CCN(C)C)c1cc(N2CCN(c3ccccc3)CC2)c(S(=O)(=O)NCCCOC)cc1S(=O)(=O)NCCCOC [Example 96] | 326% | 278% | 138% | – |
| O=S(=O)(NCCc1cccs1)c1cc(S(=O)(=O)NCCc2cccs2)c(NCc2cccc3ccccc23)cc1NCCN1CCCC1 [Example 95] | 301% | 267% | 198% | Relative change in the plasma lipid level: LDL cholesterol [2, 3]: −44%; Relative change in the plasma lipid level: Total cholesterol [2, 3]: −45%; Relative change in the plasma lipid level: Triglycerides [2, 3]: −61%; Relative change in the plasma lipid level: LDL cholesterol [2, 4]: −49%; Relative change in the plasma lipid level: Total cholesterol [2, 4]: −50%; Relative change in the plasma lipid level: Triglycerides [2, 4]: −73% |
| CN1CCN(c2cc(NCCCc3ccccc3)c(S(=O)(=O)N(C)c3ccccc3)cc2S(=O)(=O)N(C)c2ccccc2)CC1 [Example 25] | – | 189% | 168% | – |
| CCN(CCN(C)C)c1cc(NCCc2ccc(OC)c(OC)c2)c(S(=O)(=O)NCCc2cccs2)cc1S(=O)(=O)NCCc1cccs1 [Example 92] | 233% | 213% | – | – |
| CCN(CCN(C)C)c1cc(N2CCN(c3ccccc3)CC2)c(S(=O)(=O)N2CCCCC2)cc1S(=O)(=O)N1CCCCC1 [Example 64, N-Ethyl-N′,N′-dimethyl-N-[5-(4-phenyl-piperazin-1-yl)-2,4-bis-(piperidine-1-sulfonyl)-phenyl]ethane-1,2-diamine] | – | – | – | melting point: 116 to 118 °C |
| CN1CCN(c2cc(NCCCc3ccccc3)c(S(=O)(=O)N3CCOCC3)cc2S(=O)(=O)N2CCOCC2)CC1 [Example 15] | – | 243% | 137% | – |
| CN1CCN(c2cc(NCc3ccccc3)c(S(=O)(=O)NC3CCCCC3)cc2S(=O)(=O)NC2CCCCC2)CC1 [Example 2] | 227% | 155% | – | – |
| CN1CCN(c2cc(NCc3ccccn3)c(S(=O)(=O)N(C)c3ccccc3)cc2S(=O)(=O)N(C)c2ccccc2)CC1 [Example 10] | 270% | – | 144% | – |
| CN1CCN(c2cc(N3CCN(C)CC3)c(S(=O)(=O)N3CCCCC3)cc2S(=O)(=O)N2CCCCC2)CC1 [Example 8] | 190% (4 μM) | – | – | – |
| CC(C)CNS(=O)(=O)c1cc(S(=O)(=O)NCC(C)C)c(N2CCN(C)CC2)cc1NCc1ccccc1 [Example 12] | – | 244% (1.5 μM) | – | – |
| CCN(CCN(C)C)c1cc(NCCCCc2ccccc2)c(S(=O)(=O)N2CCCCC2)cc1S(=O)(=O)N1CCCCC1 [Example 70] | 238% | – | 194% | – |
| CCN(CC)S(=O)(=O)c1cc(S(=O)(=O)N(CC)CC)c(N2CCN(C)CC2)cc1NCc1ccccc1 [Example 16] | – | 214% (1.5 μM) | – | – |
| CCN(CCN(C)C)S(=O)(=O)c1cc(S(=O)(=O)N(CC)CCN(C)C)c(N2CCN(C)CC2)cc1N(C)Cc1ccccc1 [Example 61] | 190% (4 μM) | – | – | – |
| CN1CCN(c2cc(NCCCc3ccccc3)c(S(=O)(=O)N3CCCC3)cc2S(=O)(=O)N2CCCC2)CC1 [Example 26] | – | 206% | 146% | – |
| CN(C)CCNc1cc(NCc2cccc(Cl)c2)c(S(=O)(=O)N2CCCCC2)cc1S(=O)(=O)N1CCCCC1 [Example 99] | 322% | 247% | – | – |
| CN(c1ccccc1)S(=O)(=O)c1cc(S(=O)(=O)N(C)c2ccccc2)c(N2CCNCC2)cc1NCc1ccccn1 [Example 46] | – | 223% | 152% | – |
| CN1CCN(c2cc(N3CCN(C)CC3)c(S(=O)(=O)N(C)Cc3ccccc3)cc2S(=O)(=O)N(C)Cc2ccccc2)CC1 [Example 3] | – | 414% | 184% | – |
| CCN(CCN(C)C)c1cc(N2CCC(c3ccccc3)CC2)c(S(=O)(=O)NCCc2cccs2)cc1S(=O)(=O)NCCc1cccs1 [Example 93] | 337% | 293% | 213% | – |
| CN(C)CCNc1cc(NCc2ccc(Cl)c(Cl)c2)c(S(=O)(=O)N2CCCCC2)cc1S(=O)(=O)N1CCCCC1 [Example 98] | 285% | 249% | – | Relative change in the plasma lipid level: LDL cholesterol [2, 3]: −26%; Relative change in the plasma lipid level: Total cholesterol [2, 3]: −23%; Relative change in the plasma lipid level: Triglycerides [2, 3]: −27%; Relative change in the plasma lipid level: LDL cholesterol [2, 4]: −44%; Relative change in the plasma lipid level: Total cholesterol [2, 4]: −46%; Relative change in the plasma lipid level: Triglycerides [2, 4]: −68% |
| CCN(CCN(C)C)c1cc(N2CCN(c3ccccc3)CC2)c(S(=O)(=O)NCCc2cccs2)cc1S(=O)(=O)NCCc1cccs1 [Example 94] | 321% | 194% | – | – |
